Consider 25 molecules from article PMC6273152, “Design, Synthesis, and Biological Evaluation of Novel PARP-1 Inhibitors Based on a 1H-Thieno[3,4-d] Imidazole-4-Carboxamide Scaffold” (Molecules, 2016).

The target of one data set is T1, PARP-1 enzyme (Homo sapiens, UniProt P09874).
T1 construct: purchased Trevigen 4690-096-K
The data set can be described thus: PARP-1 enzymatic inhibition assay (Trevigen 96-well kit, fluorescence). The settings on record: logit method, six concentrations, read-out: IC50 (PARP-1 enzyme inhibitory activity). It counts as biochemical. As for the experimental part: All target compounds were evaluated in vitro for their PARP-1 enzyme inhibitory activity.
The procedure was according to the instructions provided by the manufacturer. […] 25 μL of 1 × Buffer was added to each well and 25 μL of appropriate 2 × NAD^+ standards were added to 1B to 1G and 2B to 2G well of 96-well plate for standard curve. 25 μL of 2 μM NAD was added to 1H and 2H for PARP control. 25 μL of 2 μM NAD was added to wells for test compounds, then serially diluted compounds were added, and 1 μL of DMSO was added to the standard well. 25 μL of PARP Mix minus enzyme was added to 1A to 1G and 25 μL of PARP Mix plus enzyme was added to PARP control and compounds well. […] Then 50 μL stop solution was added to each well, and mixed with pipette. […] Then draw the standard curve and calculate the inhibition rate of each test compound.

The subject of data set [1] is HCC1937 (BRCA1-deficient) cells. Put plainly: CellTiter Glo assay for cell growth inhibition, HCC1937. The settings on record: HCC1937, 96 h, read-out: IC50 (BRCA-1, HCC1937).
Protocol: (§1) The growth inhibition potential of test compounds was determined on BRCA1-deficient cell lines HCC1937 and BRCA2-deficient cell lines CAPAN-1. The stock solutions of test compounds were dissolved in DMSO and serially diluted to the required concentrations for 9 doses. […] 60 μL medium was removed from each well and plates were kept at room temperature for 30 min. 60 μL reagent (Celltiter Glo assay kit, Promega, Sunnyvale, CA, USA) per well was added and plates were shaked for 2 min. Cells were incubated avoiding light at room temperature for 30 min and the luminescence value was recorded by multiplate reader. GraphPad Prism 5 was used to plot effect-dose curves and calculate the IC50 values of compounds.
Another data set in a line: in vitro. Particulars: human, normal human lung fibroblast (HLF) cells.
Data set [2] relates to normal human lung fibroblast (HLF) cells. Put plainly: Cytotoxicity assay (MTT) on normal human lung fibroblast cells. The settings on record: 72 h.
Protocol: (§2) The cytotoxic potencies of test compounds were determined on normal human lung fibroblast (HLF) cells. Cells were seeded into 96-well plate at 3000 cells/well. The stock solutions of test compounds were dissolved in DMSO and serially diluted to the required concentrations for 7 doses, and the final testing concentrations for these compounds were 0.3, 1, 3, 10, 30, 100, 300 µM. […] The fraction of surviving cells after compound treatment was determined using the MTT assay.
Data set [3] deals with CAPAN-1 (BRCA2-deficient) cells. The data set can be described thus: CellTiter Glo assay for cell growth inhibition, CAPAN-1. Particulars: CAPAN-1, 96 h, read-out: IC50 (BRCA-2, CAPAN-1). (Cellular ATP, detected with luciferase, serves as a proxy for viable cell number.)
Protocol: as §1
Setting [4] is: CellTiter Glo, nine concentrations.

Where two headings read alike, the source gives them in different places.

T1 sequence (P09874 whole entry): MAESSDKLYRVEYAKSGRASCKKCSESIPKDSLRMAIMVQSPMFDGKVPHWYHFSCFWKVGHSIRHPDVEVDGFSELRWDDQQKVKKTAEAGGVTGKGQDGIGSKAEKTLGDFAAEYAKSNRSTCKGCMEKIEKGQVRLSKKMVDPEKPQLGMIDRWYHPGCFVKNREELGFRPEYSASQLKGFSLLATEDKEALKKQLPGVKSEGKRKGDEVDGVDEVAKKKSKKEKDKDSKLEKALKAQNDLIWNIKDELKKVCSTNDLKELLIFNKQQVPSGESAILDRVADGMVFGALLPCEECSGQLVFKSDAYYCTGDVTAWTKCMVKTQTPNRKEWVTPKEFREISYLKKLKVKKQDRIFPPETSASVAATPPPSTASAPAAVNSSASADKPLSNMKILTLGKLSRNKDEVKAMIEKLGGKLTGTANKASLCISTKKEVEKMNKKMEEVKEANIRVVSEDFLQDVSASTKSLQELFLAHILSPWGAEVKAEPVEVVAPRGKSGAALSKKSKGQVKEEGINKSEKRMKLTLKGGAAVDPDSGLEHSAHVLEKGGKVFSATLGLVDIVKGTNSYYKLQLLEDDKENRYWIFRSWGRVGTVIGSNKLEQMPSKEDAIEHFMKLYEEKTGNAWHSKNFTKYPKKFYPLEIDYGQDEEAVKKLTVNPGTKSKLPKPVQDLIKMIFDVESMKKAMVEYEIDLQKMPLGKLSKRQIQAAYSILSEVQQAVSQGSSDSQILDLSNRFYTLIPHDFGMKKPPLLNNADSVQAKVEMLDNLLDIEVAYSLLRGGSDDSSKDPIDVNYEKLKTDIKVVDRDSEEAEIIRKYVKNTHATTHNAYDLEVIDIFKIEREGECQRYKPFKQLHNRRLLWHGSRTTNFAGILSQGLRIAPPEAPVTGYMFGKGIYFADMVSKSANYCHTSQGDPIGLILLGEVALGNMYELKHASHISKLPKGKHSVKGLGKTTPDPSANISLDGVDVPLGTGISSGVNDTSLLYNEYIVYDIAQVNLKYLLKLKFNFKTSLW
Protocol for in vitro: as §2

With `NC(=O)c1scc2[nH]c(-c3ccc(C(=O)N4CCNCC4)cc3)nc12` [Compound 12, 2-(4-(Piperazine-1-carbonyl)phenyl)-1H-thieno[3,4-d]imidazole-4-carboxamide], the IC50 on PARP-1 enzyme (Table 1 series (12, 13a–j)) was found to be 0.723 µM.

For `NC(=O)c1scc2[nH]c(-c3ccc(C(=O)N4CCN(C(=O)c5cccs5)CC4)cc3)nc12` [Compound 13a, 2-(4-(4-(Thiophene-2-carbonyl)piperazine-1-carbonyl)phenyl)-1H-thieno[3,4-d]imidazole-4-carboxamide], at PARP-1 enzyme (Table 1 series (12, 13a–j)), the IC50 stood at 2.57 µM.

The molecule `NC(=O)c1scc2[nH]c(-c3ccc(C(=O)N4CCN(C(=O)c5ccccc5)CC4)cc3)nc12` [Compound 13b, 2-(4-(4-Benzoylpiperazine-1-carbonyl)phenyl)-1H-thieno[3,4-d]imidazole-4-carboxamide] came in with a melting point of 270 to 272 °C. Also, the concentration for half-maximal inhibition (IC50) at PARP-1 enzyme (Table 1 series (12, 13a–j)) was 3.76 µM.

`NC(=O)c1scc2[nH]c(-c3ccc(C(=O)N4CCN(C(=O)c5ccc(Br)cc5)CC4)cc3)nc12` [Compound 13c, 2-(4-(4-(4-Bromobenzoyl)piperazine-1-carbonyl)phenyl)-1H-thieno[3,4-d]imidazole-4-carboxamide] gave a melting point of 294 to 296 °C. Besides, the IC50 on PARP-1 enzyme (Table 1 series (12, 13a–j)) was 1.87 µM.

Molecule `NC(=O)c1scc2[nH]c(-c3ccc(C(=O)N4CCN(C(=O)c5ccc(Cl)cc5)CC4)cc3)nc12` [Compound 13d, 2-(4-(4-(4-Chlorobenzoyl)piperazine-1-carbonyl)phenyl)-1H-thieno[3,4-d]imidazole-4-carboxamide] came in with a melting point of 247 to 249 °C.

For `Cc1ccc(C(=O)N2CCN(C(=O)c3ccc(-c4nc5c(C(N)=O)scc5[nH]4)cc3)CC2)cc1` [Compound 13e, 2-(4-(4-(4-Methylbenzoyl)piperazine-1-carbonyl)phenyl)-1H-thieno[3,4-d]imidazole-4-carboxamide], the melting point lay within 308 to 310 °C.

Take `NC(=O)c1scc2[nH]c(-c3ccc(C(=O)N4CCN(Cc5ccccc5)CC4)cc3)nc12` [Compound 13f, 2-(4-(4-Benzylpiperazine-1-carbonyl)phenyl)-1H-thieno[3,4-d]imidazole-4-carboxamide]: the IC50 on PARP-1 enzyme (Table 1 series (12, 13a–j)) stood at 3.86 µM.

`NC(=O)c1scc2[nH]c(-c3ccc(C(=O)N4CCN(Cc5ccc(Br)cc5)CC4)cc3)nc12` [Compound 13g, 2-(4-(4-(4-Bromobenzyl)piperazine-1-carbonyl)phenyl)-1H-thieno[3,4-d]imidazole-4-carboxamide] yielded a melting point of 285 to 288 °C.

Molecule `N#Cc1ccc(CN2CCN(C(=O)c3ccc(-c4nc5c(C(N)=O)scc5[nH]4)cc3)CC2)cc1` [Compound 13h, 2-(4-(4-(4-Cyanobenzyl)piperazine-1-carbonyl)phenyl)-1H-thieno[3,4-d]imidazole-4-carboxamide] showed a melting point of 284 to 286 °C. For the same molecule, on PARP-1 enzyme (Table 1 series (12, 13a–j)), the IC50 was determined as 3.72 µM.

Molecule `Cc1ccc(CN2CCN(C(=O)c3ccc(-c4nc5c(C(N)=O)scc5[nH]4)cc3)CC2)cc1` [Compound 13i, 2-(4-(4-(4-Methylbenzyl)piperazine-1-carbonyl)phenyl)-1H-thieno[3,4-d]imidazole-4-carboxamide] returned a melting point of 272 to 273 °C.

In turn, `NC(=O)c1scc2[nH]c(-c3ccc(C(=O)N4CCN(C(=O)C5CC5)CC4)cc3)nc12` [Compound 13j, 2-(4-(4-(Cyclopropanecarbonyl)piperazine-1-carbonyl)phenyl)-1H-thieno[3,4-d]imidazole-4-carboxamide] had a melting point of 272 to 273 °C. Further, at PARP-1 enzyme (Table 1 series (12, 13a–j)), the IC50 turned out to be 1.53 µM.

Turning to `NC(=O)c1scc2[nH]c(-c3ccccc3)nc12` [Compound 16a, 2-Phenyl-1H-thieno[3,4-d]imidazole-4-carboxamide], the melting point lay within 256 to 257 °C. In addition, the IC50 on PARP-1 enzyme (Table 2 series (16a–n)) is 0.827 µM.

As to `NC(=O)c1scc2[nH]c(-c3ccc(F)cc3)nc12` [Compound 16b, 2-(4-Fluorophenyl)-1H-thieno[3,4-d]imidazole-4-carboxamide], the melting point was 244 to 246 °C. For the same molecule, the IC50 on PARP-1 enzyme (Table 2 series (16a–n)) was found to be 0.738 µM.

The molecule `NC(=O)c1scc2[nH]c(-c3ccc(Cl)cc3)nc12` [Compound 16c, 2-(4-Chlorophenyl)-1H-thieno[3,4-d]imidazole-4-carboxamide] gave a melting point of 245 to 246 °C. Besides, the IC50 at PARP-1 enzyme (Table 2 series (16a–n)) was 0.354 µM.

Consider `NC(=O)c1scc2[nH]c(-c3ccccc3Cl)nc12` [Compound 16d, 2-(2-Chlorophenyl)-1H-thieno[3,4-d]imidazole-4-carboxamide], for which the melting point fell in the range of 202 to 204 °C. Besides, the IC50 at PARP-1 enzyme (Table 2 series (16a–n)) is 1.49 µM.

Consider `NC(=O)c1scc2[nH]c(-c3c(Cl)cccc3Cl)nc12` [Compound 16e, 2-(2,6-Dichlorophenyl)-1H-thieno[3,4-d]imidazole-4-carboxamide], for which the melting point was in the range of 210 to 212 °C.

`NC(=O)c1scc2[nH]c(-c3ccc(C(F)(F)F)cc3)nc12` [Compound 16f, 2-(4-(Trifluoromethyl)phenyl)-1H-thieno[3,4-d]imidazole-4-carboxamide] had a melting point of 283 to 285 °C. For the same molecule, on PARP-1 enzyme (Table 2 series (16a–n)), the IC50 is 0.548 µM.

Consider `NC(=O)c1scc2[nH]c(-c3cccc(C(F)(F)F)c3)nc12` [Compound 16g, 2-(3-(Trifluoromethyl)phenyl)-1H-thieno[3,4-d]imidazole-4-carboxamide], for which the IC50 came to 31.3 ± 0.35 µM in data set [1] (Homo sapiens), 0.151 µM on PARP-1 enzyme (Table 2 series (16a–n)) and 38.6 ± 6.75 µM in data set [3] (Homo sapiens). The IC50 at 72 h in the data set “in vitro” worked out at 77.6 ± 1.5 µM. In addition, the “Inhibition Rate” value in data set [2] (0.3 µM) is reported as −1.65%; in data set [2] (1 µM), −1.02%; in data set [2] (3 µM), −0.63%; in data set [2] (10 µM), 0.76%; in data set [2] (30 µM) it was 4.13%; in data set [2] (100 µM), 69.88%. The “Inhibition Rate” value in data set [2] (300 µM) is listed as 99.40%.

As for `NC(=O)c1scc2[nH]c(-c3ccccc3C(F)(F)F)nc12` [Compound 16h, 2-(2-(Trifluoromethyl)phenyl)-1H-thieno[3,4-d]imidazole-4-carboxamide], the melting point fell in the range of 241 to 243 °C.

As to `NC(=O)c1scc2[nH]c(-c3ccc([N+](=O)[O-])cc3)nc12` [Compound 16i, 2-(4-Nitrophenyl)-1H-thieno[3,4-d]imidazole-4-carboxamide], the results for the half-maximal inhibitory concentration (IC50) (in data set [1] (Homo sapiens); on PARP-1 enzyme (Table 2 series (16a–n)); in data set [3] (Homo sapiens)) were 32.9 ± 4.21 µM, 0.136 µM and 26.8 ± 1.55 µM, respectively. In “in vitro”, this molecule registered an IC50 at 72 h of 94.1 ± 2.2 µM. In addition, the “Inhibition Rate” value is recorded as −0.05% in data set [2] (0.3 µM); 1.33% in data set [2] (1 µM); 0.99% in data set [2] (3 µM); 3.37% in data set [2] (10 µM); 2.56% in data set [2] (30 µM); 55.26% in data set [2] (100 µM). In data set [2] (300 µM), the “Inhibition Rate” value is given as 99.63%.

In turn, `COc1cccc(-c2nc3c(C(N)=O)scc3[nH]2)c1` [Compound 16k, 2-(3-Methoxyphenyl)-1H-thieno[3,4-d]imidazole-4-carboxamide] gave a melting point of 230 to 242 °C. Moreover, the IC50 on PARP-1 enzyme (Table 2 series (16a–n)) was found to be 1.49 µM.

`Cc1cccc(-c2nc3c(C(N)=O)scc3[nH]2)c1` [Compound 16m, 2-(m-Tolyl)-1H-thieno[3,4-d]imidazole-4-carboxamide] showed a melting point of 254 to 255 °C. The IC50 on PARP-1 enzyme (Table 2 series (16a–n)) was determined as 5.79 µM.

The molecule `Cc1ccccc1-c1nc2c(C(N)=O)scc2[nH]1` [Compound 16n, 2-(o-Tolyl)-1H-thieno[3,4-d]imidazole-4-carboxamide] came in with a melting point of 222 to 223 °C. Also, the IC50 on PARP-1 enzyme (Table 2 series (16a–n)) came out at 0.328 µM.

In the case of `O=C(c1cc(Cc2n[nH]c(=O)c3ccccc23)ccc1F)N1CCN(C(=O)C2CC2)CC1` [Olaparib, olaparib, reference compound], the concentration for half-maximal inhibition (IC50) in data set [1] (Homo sapiens) was 133 ± 14.4 µM; in data set [3] (Homo sapiens), 13.4 ± 1.16 µM. Moreover, the midpoint of inhibition in “in vitro”, the IC50 at 72 h, lay at 134 ± 3.14 µM. Also, the “Inhibition Rate” value came out at 1.88% in data set [2] (0.3 µM); 1.83% in data set [2] (1 µM); 1.10% in data set [2] (3 µM); 1.37% in data set [2] (10 µM); 1.04% in data set [2] (30 µM); 29.60% in data set [2] (100 µM). Also, the “Inhibition Rate” value in data set [2] (300 µM) is recorded as 91.45%.

As to `C[C@]1(c2nc3c(C(N)=O)cccc3[nH]2)CCCN1` [Veliparib, veliparib, reference compound], the figures for the IC50 in data set [1] (setting [4]) and in data set [3] (setting [4]) were 127 ± 18.1 µM and 57.7 ± 12.4 µM, respectively. In addition, the IC50 at 72 h in the data set “in vitro” was roughly 200 µM. For the same molecule, the “Inhibition Rate” value in data set [2] (0.3 µM) is on record as 1.00%; in data set [2] (1 µM) it was −0.28%; in data set [2] (3 µM) it was −1.20%; in data set [2] (10 µM) it was −1.35%; in data set [2] (30 µM), −0.06%; in data set [2] (100 µM), −0.45%. Also, in data set [2] (300 µM), the “Inhibition Rate” value was determined as 93.64%.

As a reminder, the IC50 is the concentration needed to halve the response being measured. For orientation: melting point means the temperature of the solid-liquid transition.
